Experiment [1] addresses Integrin alpha-4 (Homo sapiens) (UniProt P13612). As to the kind of experiment: Inhibition of alpha4 integrin-dependent cell migration in SDF1-alpha-stimulated human U937 cells at 1 or 5 uM after 4.5 hrs. It counts as cell-based. The following applies: U-937. On the set-up: scale not given: the % may be the effect or the level left.
Experiment [2] concerns the target Adenosine kinase (Homo sapiens) (UniProt P55263). Kind of experiment: Binding affinity to ADK in human Jurkat cells at 100 uM by Western blot analysis. The format is cell-based. (In general: A western blot detects proteins with antibodies after separation by electrophoresis.)
The target in experiment [3] is Integrin alpha-4 (Homo sapiens) (UniProt P13612). Kind of experiment: Inhibition of alpha4 integrin-dependent cell migration in PMA-stimulated human Jurkat cells at 1 or 5 uM after 4.5 hrs. On the set-up: scale not given: the % may be the effect or the level left. It counts as cell-based.
Experiment [4] shares this target. Kind of experiment: Inhibition of alpha4 integrin-dependent cell migration in PMA-stimulated human U937 cells at 1 or 5 uM after 4.5 hrs. The format is cell-based. On the set-up: scale not given: the % may be the effect or the level left. The following applies: U-937.
Experiment [5] has as its target T1, Gamma-parvin (Homo sapiens) (UniProt Q9HBI0).
T1 sequence (whole entry): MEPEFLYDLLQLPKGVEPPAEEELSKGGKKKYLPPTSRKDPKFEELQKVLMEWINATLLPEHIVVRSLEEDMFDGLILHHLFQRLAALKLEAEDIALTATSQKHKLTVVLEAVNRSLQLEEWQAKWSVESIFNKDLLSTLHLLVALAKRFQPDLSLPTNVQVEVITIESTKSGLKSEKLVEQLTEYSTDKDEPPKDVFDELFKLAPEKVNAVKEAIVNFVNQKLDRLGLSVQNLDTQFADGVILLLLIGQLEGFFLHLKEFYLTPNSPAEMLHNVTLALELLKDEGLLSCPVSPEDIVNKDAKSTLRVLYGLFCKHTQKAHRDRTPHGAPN
As to the kind of experiment: Binding affinity to gamma-parvin in human Jurkat cells at 100 uM by Western blot analysis. It counts as cell-based.

The next experiment relates to Jurkat. As to the kind of experiment: Inhibition of human Jurkat T cell motility after 4.5 hrs by modified Boyden chamber assay. The format is functional, cell-based.
Experiment [6] addresses Integrin alpha-4 (Homo sapiens) (UniProt P13612). As to the kind of experiment: Inhibition of alpha4 integrin-dependent cell migration in SDF1-alpha-stimulated human Jurkat cells at 1 or 5 uM after 4.5 hrs. It counts as cell-based. Further details: scale not given: the % may be the effect or the level left.
The target is the same in experiment [7]. Kind of experiment: Inhibition of alpha4 integrin-dependent cell migration in CHO cells expressing alpha4 integrin after 12 hrs by wound healing assay. It counts as cell-based.

By IC50 is commonly meant the midpoint of a concentration-inhibition curve.

Active and inactive are the calls of the source. The calls are words filed in the database; no cut-off is given here.

Chain of Integrin alpha-4 (Homo sapiens) (P13612 whole entry): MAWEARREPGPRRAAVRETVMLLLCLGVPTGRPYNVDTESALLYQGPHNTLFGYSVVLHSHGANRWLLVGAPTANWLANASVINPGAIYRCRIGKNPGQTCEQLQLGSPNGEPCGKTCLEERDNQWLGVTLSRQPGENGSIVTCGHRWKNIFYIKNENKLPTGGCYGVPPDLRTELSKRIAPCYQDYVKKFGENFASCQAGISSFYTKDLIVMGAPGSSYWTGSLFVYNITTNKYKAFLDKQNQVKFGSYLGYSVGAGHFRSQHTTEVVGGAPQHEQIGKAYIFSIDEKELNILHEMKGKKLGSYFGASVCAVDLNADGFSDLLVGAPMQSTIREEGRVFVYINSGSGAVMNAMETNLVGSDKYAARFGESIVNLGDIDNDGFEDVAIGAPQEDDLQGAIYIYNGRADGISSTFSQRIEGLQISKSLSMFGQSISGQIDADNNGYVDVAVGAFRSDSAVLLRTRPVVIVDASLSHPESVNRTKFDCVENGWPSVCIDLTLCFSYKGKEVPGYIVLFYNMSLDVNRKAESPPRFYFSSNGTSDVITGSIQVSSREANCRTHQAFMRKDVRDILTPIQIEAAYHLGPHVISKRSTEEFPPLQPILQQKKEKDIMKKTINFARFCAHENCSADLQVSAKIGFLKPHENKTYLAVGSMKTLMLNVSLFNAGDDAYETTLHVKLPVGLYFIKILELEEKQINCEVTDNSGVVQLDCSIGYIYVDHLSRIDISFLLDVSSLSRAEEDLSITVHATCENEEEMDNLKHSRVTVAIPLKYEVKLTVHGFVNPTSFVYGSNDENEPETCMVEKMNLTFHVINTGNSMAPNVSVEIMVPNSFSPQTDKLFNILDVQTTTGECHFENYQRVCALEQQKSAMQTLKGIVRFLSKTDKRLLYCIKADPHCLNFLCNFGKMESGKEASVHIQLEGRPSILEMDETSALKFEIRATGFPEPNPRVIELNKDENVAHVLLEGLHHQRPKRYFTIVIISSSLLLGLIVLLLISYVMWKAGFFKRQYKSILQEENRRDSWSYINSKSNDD
Chain of Adenosine kinase (Homo sapiens) (P55263 2-362 limits assumed): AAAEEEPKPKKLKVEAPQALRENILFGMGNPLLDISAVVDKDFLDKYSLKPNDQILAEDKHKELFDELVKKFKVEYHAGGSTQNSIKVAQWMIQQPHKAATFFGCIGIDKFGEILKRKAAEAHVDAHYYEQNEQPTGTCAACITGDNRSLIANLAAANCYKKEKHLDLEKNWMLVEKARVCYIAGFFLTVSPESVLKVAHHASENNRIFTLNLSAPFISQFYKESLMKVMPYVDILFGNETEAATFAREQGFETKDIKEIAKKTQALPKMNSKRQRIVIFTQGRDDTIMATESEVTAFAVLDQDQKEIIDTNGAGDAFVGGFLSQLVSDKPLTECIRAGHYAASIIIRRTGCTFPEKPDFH

With `Nc1ccc(-c2cc3c(Nc4cccc(Cl)c4)ncnc3[nH]2)cc1`, the Activity in experiment [1] is 40%; in experiment [3] it was 40%; in experiment [4], 40%; in experiment [6] it was 40%; in experiment [7], “Dose-dependent effect”. Further, the result in experiment [2] and in experiment [5] was Active. Besides, the IC50 in the experiment on Jurkat amounted to 500 nM.

Source of the values: ChEMBL document CHEMBL1140984, “A small molecule inhibitor of alpha4 integrin-dependent cell migration” (Bioorg Med Chem, 2009).
